From ChEMBL document CHEMBL1122154, “Serotonin receptor affinity of cathinone and related analogues” (J Med Chem, 1982)

The compounds below were run against Serotonin (5-HT) receptor (assay: Affinity for 5-hydroxytryptamine receptor was determined using male Dawley rat fundus preparation).
Type: protein assay

COc1ccc2c(c1)C(CN)CCO2 (stereo not given) and COc1ccc2c(c1)C(CN)=CCO2 are within 0.2 log units of each other in pA2: 5.94 for the first, 6.12 for the second.

Compared with NC1CCc2ccccc2C1=O (stereo not given), NC1CCc2ccccc2C1 (stereo not given) is lower in pA2: 6.04 for the first, 5.61 for the second.

First: NCC1=CCOc2ccccc21
Second: NCC1=CCCc2ccccc21
The pA2 of the first is lower: 4.94 for the first, 5.81 for the second.

First: NCC(N)c1ccccc1 (racemic)
Second: CC(N)C(=O)c1ccccc1 (stereo not given) [DEALKYLATED DIETHYLPROPION]
The pA2 of the first is lower: 4.9 for the first, 5.86 for the second.

First: COc1ccc(C(=O)C(C)N)cc1OC (racemic)
Second: CC(N)C(=O)c1ccc(O)cc1 (racemic) [HYDROXYLATED COMPLETELY DELAKYLATED DIETHYLPROPION]
The pA2 of the first is higher: 6.14 for the first, 5.3 for the second.
